From patent publication US20240101563A1, “NOVEL COMPOUNDS” (AC Immune SA, priority 2022, published 2024)
pIC50: −log10 of the molar value.

Experiments:
[1] = tested on: NLRP3 inflammasome pathway; assay: NLRP3 inflammasome pathway activation assay, MSU stimulation, IL-1β HTRF; format: cell-based; details: Homo sapiens, 3 h, Table 7; PMA-differentiated, LPS-primed cells; MSU 200 μg/mL for 3 h; IL-1β release; read-out: IC50 Human monocyte-like cells MSU
Summary of the method: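 Human monocyte-like cells differentiated overnight with 10 ng/mL PMA, primed 3 h with 10 ng/mL LPS, given compound ([…]) 30 min before 3 h stimulation with Nigericin 3.75 μM or MSU 200 μg/mL. Supernatant IL-1β quantified by HTRF; IC50 at 50% inhibition.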

IL-1β = assay: Inhibition of IL-1β in an LPS/ATP induced acute peritonitis mouse model; format: in vivo; details: BALB/c mice; dosed 30 min before LPS i.p.; ATP i.p. 120 min after LPS; PW 30 min post ATP; vs LPS-ATP, 0 mg/kg
Method: 1.2.1 The efficacy of Example compounds 53 and 18 in an LPS/ATP-induced acute peritonitis was evaluated: LPS (Lipopolysaccharide) and ATP (Adenosine triphosphate) were administered to BALB/c mice by intraperitoneal (i.p.) injection to elicit an acute inflammatory response in the peritoneal cavity.
Mice (BALB/c mice, aged 6-8 w, females) were challenged with 50 μg/kg LPS by intraperitoneal (i.p.) injection. 120 min after LPS administration, ATP was delivered by i.p. injection at 50 mM in 200 μL. […]
Cytometric Bead Array (CBA) Assay for IL-1β detection was performed on the peritoneal wash supernatant as follows: supernatants or cytokine standards were incubated with the capture beads mixture for 1 hour at room temperature. […] After washing in Wash Buffer containing 1×PBS, blocking protein, and detergent, the beads were re-suspended and analyzed by flow cytometry.
The cytokine analysis raw data were analyzed using FACP. […] Data were expressed as the Mean±SD. […]

Cc1cc(C(F)(F)F)cc(O)c1-c1nc2nc(OC3CCN(C)C3)cnc2n1C (single isomer, unassigned) [Example 53, 3-methyl-2-(1-methyl-5-((1-methylpyrrolidin-3-yl)oxy)-1H-imidazo[4,5-b]pyrazin-2-yl)-5-(trifluoromethyl)phenol]
pIC50 [1]: > 7.00
IL-1β release in peritoneal wash (PW) (IL-1β): significantly reduced IL-1β release in PW in a dose response manner
